This note sets out measurements from ChEMBL document CHEMBL1926587, “Molecular insights into human monoamine oxidase (MAO) inhibition by 1,4-naphthoquinone: evidences for menadione (vitamin K3) acting as a competitive and reversible inhibitor of MAO” (Bioorg Med Chem, 2011).

Calls of active or inactive are those of the source. The rule behind the calls is not given here.

The target of data set [1] is T1, Amine oxidase [flavin-containing] B (Homo sapiens, UniProt P27338).
T1 sequence (P27338 whole entry): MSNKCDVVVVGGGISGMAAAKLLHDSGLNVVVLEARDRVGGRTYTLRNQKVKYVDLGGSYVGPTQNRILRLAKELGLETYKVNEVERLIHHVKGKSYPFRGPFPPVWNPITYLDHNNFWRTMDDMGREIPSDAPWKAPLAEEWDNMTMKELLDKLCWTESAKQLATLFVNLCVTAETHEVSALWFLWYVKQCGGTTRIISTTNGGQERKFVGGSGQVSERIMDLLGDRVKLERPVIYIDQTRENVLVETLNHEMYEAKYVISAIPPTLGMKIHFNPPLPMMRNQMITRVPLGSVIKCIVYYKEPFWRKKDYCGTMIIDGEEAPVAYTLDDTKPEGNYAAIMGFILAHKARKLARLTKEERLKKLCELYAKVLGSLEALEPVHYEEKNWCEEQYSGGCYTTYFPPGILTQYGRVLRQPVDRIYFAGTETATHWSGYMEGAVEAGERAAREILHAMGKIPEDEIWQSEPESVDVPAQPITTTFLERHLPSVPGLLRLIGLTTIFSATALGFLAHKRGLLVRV
Briefly: Competitive inhibition of human MAO-B.

In data set [2] the target is T2, Amine oxidase [flavin-containing] A (Homo sapiens, UniProt P21397).
T2 sequence (P21397 whole entry): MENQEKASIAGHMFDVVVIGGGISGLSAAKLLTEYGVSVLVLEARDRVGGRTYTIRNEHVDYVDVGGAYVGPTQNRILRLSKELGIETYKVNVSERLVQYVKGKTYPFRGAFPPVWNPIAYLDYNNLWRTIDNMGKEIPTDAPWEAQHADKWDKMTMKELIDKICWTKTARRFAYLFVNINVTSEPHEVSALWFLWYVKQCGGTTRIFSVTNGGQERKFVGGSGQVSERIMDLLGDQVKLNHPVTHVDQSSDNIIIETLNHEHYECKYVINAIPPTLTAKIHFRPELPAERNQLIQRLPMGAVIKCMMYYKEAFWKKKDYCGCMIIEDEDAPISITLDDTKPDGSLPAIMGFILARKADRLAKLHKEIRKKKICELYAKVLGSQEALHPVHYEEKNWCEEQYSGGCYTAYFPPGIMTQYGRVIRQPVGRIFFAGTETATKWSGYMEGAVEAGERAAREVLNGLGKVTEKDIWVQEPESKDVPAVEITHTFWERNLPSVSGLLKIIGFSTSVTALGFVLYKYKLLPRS
Kind of data set: Competitive inhibition of human MAO-A.

The target of data set [3] is T1, Amine oxidase [flavin-containing] B. Kind of data set: Competitive inhibition of human recombinant MAO-B expressed in baculovirus infected insect cells using benzylamine as substrate by Lineweaver-Burk plot analysis.
The target of data set [4] is T2, Amine oxidase [flavin-containing] A. Kind of data set: Noncompetitive inhibition of human recombinant MAO-A expressed in baculovirus infected insect cells using p-tyramine as substrate by Lineweaver-Burk plot analysis.
Data set [5] concerns the target T1, Amine oxidase [flavin-containing] B. Kind of data set: Reversible inhibition of human recombinant MAO-B expressed in baculovirus infected insect cells assessed as decrease in Km at 5 uM preincubated for 20 mins measured 3 hrs post dialysis by Lineweaver-Burk plot analysis.
The target of data set [6] is T2, Amine oxidase [flavin-containing] A. Briefly: Reversible inhibition of human recombinant MAO-A expressed in baculovirus infected insect cells assessed as increase in Vmax at 5 uM preincubated for 20 mins measured 3 hrs post dialysis by Lineweaver-Burk plot analysis.
Data set [7] addresses T1, Amine oxidase [flavin-containing] B. Kind of data set: Competitive inhibition of human recombinant MAO-B expressed in baculovirus infected insect cells assessed as reduction in fluorescence at 20 to 25 uM by spectrofluorimetry relative to control. On the set-up: scale not given: the % may be the effect or the level left.
Data set [8] concerns the target T2, Amine oxidase [flavin-containing] A. Kind of data set: Noncompetitive inhibition of human recombinant MAO-A expressed in baculovirus infected insect cells assessed as reduction in Vmax at 5 uM by Lineweaver-Burk plot analysis.
In data set [9] the target is T1, Amine oxidase [flavin-containing] B. Kind of data set: Competitive inhibition of human recombinant MAO-B expressed in baculovirus infected insect cells assessed as increase in Km at 5 uM by Lineweaver-Burk plot analysis.
For a further data set, the system named is Armoracia rusticana. Briefly: Inhibition of horseradish peroxidase at 100 uM after 45 mins by amplex red assay in the presence of hydrogen peroxide.
The species entered for the next data set is Homo sapiens. Briefly: Selectivity ratio of Ki for human recombinant MAO-A to Ki for human recombinant MAO-B.
The next data set is filed under the species Rattus norvegicus. Kind of data set: Selectivity ratio of Ki for rat MAO-A to Ki for rat MAO-B.
Data set [10] concerns the target T2, Amine oxidase [flavin-containing] A. Briefly: Reversible inhibition of human recombinant MAO-A expressed in baculovirus infected insect cells assessed as decrease in Km at 5 uM preincubated for 20 mins measured 3 hrs post dialysis by Lineweaver-Burk plot analysis.
Data set [11] deals with T1, Amine oxidase [flavin-containing] B. Kind of data set: Competitive inhibition of human recombinant MAO-B expressed in baculovirus infected insect cells assessed as reduction in fluorescence at 10 to 12 uM by spectrofluorimetry relative to control. On the set-up: scale not given: the % may be the effect or the level left.
The target of data set [12] is T2, Amine oxidase [flavin-containing] A. Kind of data set: Competitive inhibition of human recombinant MAO-A expressed in baculovirus infected insect cells using p-tyramine as substrate by Lineweaver-Burk plot analysis.
The target is the same in data set [13]. Briefly: Competitive inhibition of human recombinant MAO-A expressed in baculovirus infected insect cells assessed as increase in Km at 5 uM by Lineweaver-Burk plot analysis.

On to `CC1=C(C)C(=O)c2cc(C)ccc2C1=O`, for which the Ki was determined as 3 µM in data set [1] and 6 µM in data set [2].

For `O=C1C=CC(=O)c2ccccc21` [NAPHTHOQUINONE], the Ki came to 1.5 µM in data set [3] and 7.7 µM in data set [4]. The “inhibition (INH)” value in [5], in data set [6], in [8] and in data set [9] was “Active” each time. Also, in data set [7], the Activity is 50%. Further, in the data set with Armoracia rusticana, the inhibition entry was “inactive”.

Regarding `C#CCN(C)[C@H](C)Cc1ccccc1`, the Ratio Ki in the data set filed under Homo sapiens and in the data set listed under Rattus norvegicus was 250 in each case.

Take `CC1=CC(=O)c2ccccc2C1=O` [MENADIONE]: the Ki stood at 0.4 µM in data set [3] and 26 µM in [12]. Also, the “inhibition (INH)” value in data set [5], in data set [10], in data set [13] and in [9] was “Active” each time. The Activity in data set [11] is reported as 50%. Also, the Ratio Ki in the data set filed under Homo sapiens was determined as 60. Further, the inhibition result with Armoracia rusticana was “inactive”.

With `C#CCN[C@@H]1CCc2ccccc21`, the Ratio Ki in the data set listed under Homo sapiens turned out to be 50; in the data set listed under Rattus norvegicus, 93.

A word on the Ki: it is the dissociation constant of the complex between target and ligand, obtained from inhibition or displacement.
